Source: patent US20180186796A1, “COMPOUNDS AND USES THEREOF” (LEAD DISCOVERY SIENA S.R.L., priority 2014, published 2018)
pKi: −log10 of the molar value. Converted amounts (≈) assume the structure as drawn. Structures can show the parent of a compound that is named as a salt. Where two headings read alike, the source gives them in different places.

Tests used:
[1] = target: T1, Recombinant human Src (Homo sapiens, UniProt P12931); experiment: Enzymatic assay on isolated Src; format: biochemical; details: for Ki: mean of at least two experiments, read-out: Enzymatic Data (Ki, μM) c-Src
T1 construct: purchased Upstate (Lake Placid, N.Y.)
T1 sequence (P12931 whole entry): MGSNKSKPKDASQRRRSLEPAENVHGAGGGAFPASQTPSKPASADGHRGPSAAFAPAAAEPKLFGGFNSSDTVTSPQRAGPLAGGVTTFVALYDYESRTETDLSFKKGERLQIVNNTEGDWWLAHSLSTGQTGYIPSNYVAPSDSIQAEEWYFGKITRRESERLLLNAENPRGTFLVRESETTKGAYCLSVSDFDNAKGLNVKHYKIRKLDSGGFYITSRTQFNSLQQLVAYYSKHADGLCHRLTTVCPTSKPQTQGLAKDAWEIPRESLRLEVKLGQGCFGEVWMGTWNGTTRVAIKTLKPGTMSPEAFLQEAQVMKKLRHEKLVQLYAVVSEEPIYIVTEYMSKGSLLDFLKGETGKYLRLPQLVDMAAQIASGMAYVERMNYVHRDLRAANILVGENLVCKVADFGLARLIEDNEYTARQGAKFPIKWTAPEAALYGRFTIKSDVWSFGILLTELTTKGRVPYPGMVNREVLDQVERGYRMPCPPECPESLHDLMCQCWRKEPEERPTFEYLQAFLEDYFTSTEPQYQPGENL
Description: Recombinant human Src was purchased from Upstate (Lake Placid, N.Y.).

[2] = target: T2, Recombinant human Abl (Homo sapiens, UniProt P00519); experiment: Enzymatic assay on isolated Abl; format: biochemical; details: mean of at least two experiments
T2 construct: purchased Upstate
T2 sequence (P00519 whole entry): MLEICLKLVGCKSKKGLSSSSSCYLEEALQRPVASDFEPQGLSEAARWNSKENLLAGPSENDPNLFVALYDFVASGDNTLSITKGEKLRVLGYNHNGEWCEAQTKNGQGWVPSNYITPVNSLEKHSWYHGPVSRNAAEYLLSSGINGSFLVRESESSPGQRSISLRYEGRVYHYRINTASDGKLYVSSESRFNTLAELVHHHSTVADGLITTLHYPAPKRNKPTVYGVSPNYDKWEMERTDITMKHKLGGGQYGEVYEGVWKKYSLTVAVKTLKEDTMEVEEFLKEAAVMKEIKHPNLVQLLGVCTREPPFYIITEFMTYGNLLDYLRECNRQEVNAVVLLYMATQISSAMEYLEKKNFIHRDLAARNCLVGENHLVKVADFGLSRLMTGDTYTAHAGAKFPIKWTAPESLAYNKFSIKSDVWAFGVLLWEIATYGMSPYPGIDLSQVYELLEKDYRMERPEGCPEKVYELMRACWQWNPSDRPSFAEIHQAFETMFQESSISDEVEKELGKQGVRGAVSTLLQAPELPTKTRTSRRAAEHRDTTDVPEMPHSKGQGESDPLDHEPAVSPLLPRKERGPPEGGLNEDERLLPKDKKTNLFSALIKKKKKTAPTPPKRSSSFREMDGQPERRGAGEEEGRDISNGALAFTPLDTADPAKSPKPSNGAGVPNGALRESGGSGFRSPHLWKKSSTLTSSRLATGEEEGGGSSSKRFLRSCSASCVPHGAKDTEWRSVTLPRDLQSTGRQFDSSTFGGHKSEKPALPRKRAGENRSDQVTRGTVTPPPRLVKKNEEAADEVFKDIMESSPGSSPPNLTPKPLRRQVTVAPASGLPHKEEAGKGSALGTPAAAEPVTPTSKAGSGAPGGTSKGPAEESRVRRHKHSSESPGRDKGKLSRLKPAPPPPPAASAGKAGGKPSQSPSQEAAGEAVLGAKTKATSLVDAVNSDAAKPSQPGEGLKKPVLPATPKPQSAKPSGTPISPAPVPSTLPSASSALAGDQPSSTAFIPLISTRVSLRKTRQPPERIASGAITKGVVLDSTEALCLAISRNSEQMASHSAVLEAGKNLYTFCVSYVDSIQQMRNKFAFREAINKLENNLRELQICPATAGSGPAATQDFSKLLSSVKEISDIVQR
Protocol: Recombinant human Abl was purchased from Upstate.
Activity was measured in a filter binding assay using an Abl specific peptide substrate (Abtide, Upstate).

[3] = target: recombinant Fyn (Homo sapiens, UniProt P06241); experiment: Enzymatic assay on isolated Fyn kinase
Chain of recombinant Fyn (P06241 whole entry, looked up): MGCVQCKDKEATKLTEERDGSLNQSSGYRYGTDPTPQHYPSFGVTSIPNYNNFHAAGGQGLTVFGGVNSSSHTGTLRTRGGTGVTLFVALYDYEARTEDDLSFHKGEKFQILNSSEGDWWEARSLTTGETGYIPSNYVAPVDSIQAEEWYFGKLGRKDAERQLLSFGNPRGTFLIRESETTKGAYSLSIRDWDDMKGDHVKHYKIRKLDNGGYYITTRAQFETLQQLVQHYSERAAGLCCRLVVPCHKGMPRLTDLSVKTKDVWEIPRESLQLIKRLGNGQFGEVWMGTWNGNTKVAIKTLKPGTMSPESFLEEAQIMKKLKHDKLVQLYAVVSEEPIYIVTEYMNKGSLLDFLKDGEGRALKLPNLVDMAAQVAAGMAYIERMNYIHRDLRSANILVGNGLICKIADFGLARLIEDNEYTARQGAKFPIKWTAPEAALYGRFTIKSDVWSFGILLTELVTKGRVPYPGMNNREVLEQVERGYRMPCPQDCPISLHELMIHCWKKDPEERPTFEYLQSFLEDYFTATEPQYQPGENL

[4] = Water solubility assay; details: for H2O Solubility: Table 6; for solubility at 24 h / solubility thermodynamic at 24 h: water, 20 °C, thermodynamic from solid
Protocol: Each solid compound (1 mg) was added to 1 mL of water. […] The suspensions were filtered through a 0.45 μm nylon filter (Acrodisc), and the solubilized compound determined by LC-MS-MS assay. For each compound the determination was performed in triplicate. […] The flow rate was 0.2 mL min-^−1 and injection volume was 5 μL. The instrument operated in positive mode and parameters were: detector 1850 V, drying gas pressure 25.0 psi, desolvation temperature 300.0° C., nebulizing gas 40.0 psi, needle 5000 V and shield 600 V. Nitrogen was used as nebulizer gas and drying gas.
Solid compound (1 mg) was added to 1 mL of water. […] The suspensions were filtered through a 0.45-μm nylon filter (Acrodisc), and the solubilised compound determined by LC-UV-MS assay. The determination was performed in triplicate.
Chromatographic analysis was performed with the method above reported and quantification of compounds was made by comparison with apposite calibration curves realized with standard solutions in methanol.

[5] = Microsomal stability assay; details: for Metabolic Stab.: percentage of unmodified parent drug, human liver microsomes 60 min
[6] = PAMPA, intestinal (GI) permeability; details: for Papp / Papp at 5 h, 0.5 mM: PAMPA; for Papp: Table 6; for PAMPA GI (MR %): Membrane Retention; for Papp at 5 h, 0.5 mM: pH 7.4
Protocol: Donor solution (0.5 mM) was prepared by diluting 1 mM dimethylsulfoxide (DMSO) compound stock solution using phosphate buffer (pH 7.4, 0.025 M). […] Donor solution (150 μL) was added to each well of the filter plate. To each well of the acceptor plate were added 300 μL of solution (50% DMSO in phosphate buffer). All compounds were tested in three different plates on different days. The sandwich was incubated for 5 h at room temperature under gentle shaking. After the incubation time, the plates were separated, and samples were taken from both receiver and donor sides and analyzed using LC with UV detection at 280 nm.
Permeability (Papp) for PAMPA was calculated according to the following equation, obtained from Wohnsland and Faller^27 and Sugano et al.^28 equation with some modification in order to obtain permeability values in cm s^−1,
Drug concentration is estimated by using the peak area integration. Membrane retentions (%) were calculated according to the following equation:
where r is the ratio between drug concentration in the acceptor and equilibrium concentration, D, A, and Eq represented drug concentration in the donor, acceptor and equilibrium solution, respectively.
Donor solution of tested compounds (0.5 mM) was prepared by diluting 1 mM dimethylsulfoxide (DMSO) compound stock solution using phosphate buffer (pH 7.4, 25 mM). […] Donor solution (150 μL) was added to each well of the filter plate. To each well of the acceptor plate were added 300 μL of solution (50% DMSO in phosphate buffer). Compounds was tested in three different plates on different days. The sandwich was incubated for 5 h at room temperature under gentle shaking.
Permeability (Papp) for PAMPA was calculated according to the following equation, obtained from Wohnsland and Faller and Sugano et al.^27, 28.
Drug concentration is estimated by using the peak area integration. Membrane retention (%) was calculated according to the following equation:

[7] = Stability tests in phosphate buffer and methanol; format: physicochemical; details: 20° C., 48 h incubation
[8] = Enzymatic stability in human plasma; format: in vitro ADME; details: for half-life at 100 μM: human, pooled human plasma diluted with phosphate buffer, pH 7.4
[9] = PAMPA, BBB permeability; details: for PAMPA BBB (MR %): Membrane Retention; for Papp at 5 h, 0.5 mM: PAMPA, pH 7.4
[10] = methanol, read-out: Stability MeOH t1/2
[11] = phosphate buffer, pH 7.4, read-out: Stability PBS pH 7.4 t1/2
[12] = 37° C., read-out: Stability Human Plasma t1/2 (converted)
[13] = read-out: t1/2 in human plasma (converted)

Clc1cccc(Nc2nc(SC3CCCC3)nc3c2cnn3CC(Cl)c2ccccc2)c1 (stereo not drawn)
pKi [1]: < 4.00
Ki [2]: > 100 µM
pKi [3]: < 4.00

Nc1ncnc2c1c(-c1ccccc1)nn2CC(Cl)c1ccccc1 (stereo not drawn) (as salt: hydrochloride) [Si244, 1-(2-Chloro-2-phenylethyl)-3-phenyl-1H-pyrazolo[3,4-d]pyrimidin-4-amine hydrochloride]
melting point: 129 to 132 °C

CCC(C)Sc1nc(NCc2ccccc2)c2cnn(CC(Cl)c3ccccc3)c2n1 (stereo not drawn) [Si146, N-benzyl-6-(sec-butylthio)-1-(2-chloro-2-phenylethyl)-1H-pyrazolo[3,4-d]pyrimidin-4-amine]
melting point: 112 to 113 °C

CCC(C)Sc1nc(NCCc2ccccc2)c2cnn(CC(Cl)c3ccccc3)c2n1 (stereo not drawn) [Si147, 6-(Sec-butylthio)-1-(2-chloro-2-phenylethyl)-N-(2-phenylethyl)-1H-pyrazolo[3,4-d]pyrimidin-4-amine]
melting point: 97 to 98 °C

Clc1cccc(Nc2nc(SCCN3CCOCC3)nc3c2cnn3CC(Cl)c2ccccc2)c1 (stereo not drawn) [Si181, 1-(2-chloro-2-phenylethyl)-N-(3-chlorophenyl)-6-((2-morpholinoethyl)thio)-1H-pyrazolo[3,4-d]pyrimidin-4-amine, reference compound]
Ki [1]: 0.19 µM
Ki [2]: 0.12 µM
H2O Solubility [4]: 0.1 µg/mL
Metabolic Stab. [5]: 95%
Papp [6]: 9.5 10^−6 cm/sec

CC(Cn1nc(-c2ccccc2)c2c(N)ncnc21)c1ccccc1 (stereo not drawn) [Si312, 3-Phenyl-1-(2-phenylpropyl)-1H-pyrazolo[3,4-d]pyrimidin-4-amine]
melting point: 105 to 109 °C
decreased Fyn activity on substitution of chlorine by methyl in N1 side chain [3]: about 10 fold

CSc1nc(Nc2cccc(O)c2)c2cnn(CC(Cl)c3ccccc3)c2n1 (stereo not drawn) [Si322]
pKi ([1]; read-out: Ki c-Src): 7.52
Ki [2]: 0.15 µM
H2O Solubility [4]: 4.3 µg/mL
Metabolic Stab. [5]: 98%
Papp [6]: 5.92 10^−6 cm/sec

CC(C)Sc1nc(Nc2cccc(O)c2)c2cnn(CC(Cl)c3ccccc3)c2n1 (stereo not drawn) [Si323]
pKi ([1]; read-out: Ki c-Src): 8.00
Ki [2]: 0.12 µM
H2O Solubility [4]: 0.9 µg/mL
Metabolic Stab. [5]: 95%
Papp [6]: 4.53 10^−6 cm/sec

Fc1ccc(CCn2ncc3c(Nc4cccc(Cl)c4)nc(SCCN4CCOCC4)nc32)cc1 [Si327, N-(3-Chlorophenyl)-1-[2-(4-fluorophenyl)ethyl]-6-[(2-morpholin-1-ylethyl)thio]-1H-pyrazolo[3,4-d]pyrimidin-4-amine]
pKi ([1]; read-out: Ki c-Src): ~7.00
melting point: 127 to 128 °C

CC(=O)c1ccc(-c2nn(CC(C)c3ccccc3)c3ncnc(N)c23)cc1 (stereo not drawn) [Si336, 1-{4-[4-Amino-1-(2-phenylpropyl)-1H-pyrazolo[3,4-d]pyrimidin-3-yl]phenyl}ethanone]
melting point: 232 to 235 °C

Cc1ccc(-c2nn(CC(C)c3ccccc3)c3ncnc(N)c23)cc1 (stereo not drawn) [Si338, 3-(4-Methylphenyl)-1-(2-phenylpropyl)-1H-pyrazolo[3,4-d]pyrimidin-4-amine]
melting point: 152 to 155 °C
decreased Fyn activity on substitution of chlorine by methyl in N1 side chain ([3]; Si312 vs Si244, Si337 vs Si308, Si338 vs Si309): about 10 fold
pKi ([3]; read-out: Ki Fyn): 6.00

Fc1cccc(Nc2nc(SC3CCCC3)nc3c2cnn3CC(Cl)c2ccccc2)c1 (stereo not drawn) [drawing 179]
Ki [1]: 0.11 µM
Ki [2]: > 100 µM
Metabolic Stab. [5]: 95%
Papp [6]: 14 10^−6 cm/sec

CN1CCN(CCOC(=O)N(Cc2ccccc2)c2ncnc3c2cnn3CC(Cl)c2ccccc2)CC1 (stereo not drawn) [proS13, 2-(4-Methylpiperazin-1-yl)ethyl benzyl(1-(2-chloro-2-phenylethyl)-1H-pyrazolo[3,4-d]pyrimidin-4-yl)carbamate]
half-life at 500 μM [7, 10]: > 48 h
half-life at 500 μM [7, 11]: > 48 h
half-life at 100 μM [8, 12]: > 48 h
solubility at 24 h [4]: 35.5 µM (≈ 18.9 µg/mL)
solubility thermodynamic at 24 h [4]: 18.8 µg/mL (≈ 35.2 µM)
PAMPA BBB (MR %) [9]: (45.6) %
Papp at 5 h, 0.5 mM [9]: 5.01 ×10⁻⁶ cm/s
Metabolic Stab. % ([5]; percentage of unmodified drug, Table 8): 86.4%
PAMPA GI (MR %) [6]: (40.1) %
Papp at 5 h, 0.5 mM [6]: 6.7 ×10⁻⁶ cm/s

CSc1nc(N(CCc2ccccc2)C(=O)OCCN2CCN(C)CC2)c2cnn(CC(Cl)c3ccccc3)c2n1 (stereo not drawn) [proSi35, 2-(4-methylpiperazin-1-yl)ethyl (1-(2-chloro-2-phenylethyl)-6-(methylthio)-1H-pyrazolo[3,4-d]pyrimidin-4-yl)(phenethyl)carbamate]
half-life at 500 μM [7, 10]: > 48 h
half-life at 500 μM [7, 11]: > 48 h
half-life at 100 μM [8, 12]: 35.3 h
solubility at 24 h [4]: 182 µM (≈ 108 µg/mL)
solubility thermodynamic at 24 h [4]: 107 µg/mL (≈ 180 µM)
PAMPA BBB (MR %) [9]: (88.8) %
Papp at 5 h, 0.5 mM [9]: 0.01 ×10⁻⁶ cm/s
PAMPA GI (MR %) [6]: (86.1) %
Papp at 5 h, 0.5 mM [6]: 0.85 ×10⁻⁶ cm/s

CSc1nc(N(C(=O)OCCN2CCN(C)CC2)c2cccc(Cl)c2)c2cnn(CC(Cl)c3ccccc3)c2n1 (stereo not drawn) [proSi83, 2-(4-Methylpiperazin-1-yl)ethyl (1-(2-chloro-2-phenylethyl)-6-(methylthio)-1H-pyrazolo[3,4-d]pyrimidin-4-yl)(3-chlorophenyl)carbamate]
half-life at 500 μM [7, 10]: > 48 h
half-life at 500 μM [7, 11]: > 48 h
half-life at 100 μM [8, 12]: 3.28 h
solubility at 24 h [4]: 7.08 µM (≈ 4.25 µg/mL)
solubility thermodynamic at 24 h [4]: 4.22 µg/mL (≈ 7.03 µM)
PAMPA BBB (MR %) [9]: (47.0) %
Papp at 5 h, 0.5 mM [9]: 4.14 ×10⁻⁶ cm/s
PAMPA GI (MR %) [6]: (44.7) %
Papp at 5 h, 0.5 mM [6]: 4.95 ×10⁻⁶ cm/s

CSc1nc(N(C(=O)OCCN2CCN(C)CC2)c2cccc(Cl)c2)c2cnn(CCc3ccccc3)c2n1 [proSi214, 2-(4-Methylpiperazin-1-yl)ethyl (3-chlorophenyl)(6-(methylthio)-1-phenethyl-1H-pyrazolo[3,4-d]pyrimidin-4-yl)carbamate]
half-life at 500 μM [7, 10]: > 48 h
half-life at 500 μM [7, 11]: > 48 h
half-life at 100 μM [8, 12]: 3.67 h
solubility at 24 h [4]: 11.2 µM (≈ 6.35 µg/mL)
solubility thermodynamic at 24 h [4]: 6.32 µg/mL (≈ 11.2 µM)
PAMPA BBB (MR %) [9]: (49.7) %
Papp at 5 h, 0.5 mM [9]: 4.3 ×10⁻⁶ cm/s
PAMPA GI (MR %) [6]: (63.1) %
Papp at 5 h, 0.5 mM [6]: 4.69 ×10⁻⁶ cm/s

CN1CCN(CCOC(=O)N(Cc2ccccc2Cl)c2ncnc3c2cnn3CC(Cl)c2ccc(Br)cc2)CC1 (stereo not drawn) [proSi221, 2-(4-Methylpiperazin-1-yl)ethyl (1-(2-(4-bromophenyl)-2-chloroethyl)-1H-pyrazolo[3,4-d]pyrimidin-4-yl)(2-chlorobenzyl)carbamate]
half-life at 500 μM [7, 10]: > 48 h
half-life at 500 μM [7, 11]: > 48 h
half-life at 100 μM [8, 12]: > 48 h
solubility at 24 h [4]: 3.09 µM (≈ 2 µg/mL)
solubility thermodynamic at 24 h [4]: 1.95 µg/mL (≈ 3.01 µM)
PAMPA BBB (MR %) [9]: (79.4) %
Papp at 5 h, 0.5 mM [9]: 1.92 ×10⁻⁶ cm/s
PAMPA GI (MR %) [6]: (78.1) %
Papp at 5 h, 0.5 mM [6]: 2.38 ×10⁻⁶ cm/s

CSc1nc(N(C(=O)OC(C)CN2CCN(C)CC2)c2cccc(Br)c2)c2cnn(CC(C)c3ccccc3)c2n1 (stereo not drawn) [proSi278 (B), 1-(4-Methylpiperazin-1-yl)propan-2-yl (3-bromophenyl)(6-(methylthio)-1-(2-phenylpropyl)-1H-pyrazolo[3,4-d]pyrimidin-4-yl)carbamate]
half-life at 500 μM [7, 10]: > 48 h
half-life at 500 μM [7, 11]: > 48 h
Stability Human Plasma t1/2 ([8]; 37° C.): 10.40 h
half-life at 100 μM [8, 13]: 10.4 h
solubility at 24 h [4]: 5.37 µM (≈ 3.43 µg/mL)
solubility thermodynamic at 24 h [4]: 3.4 µg/mL (≈ 5.32 µM)
PAMPA BBB (MR %) [9]: (70.6) %
Papp at 5 h, 0.5 mM [9]: 2.39 ×10⁻⁶ cm/s
PAMPA GI (MR %) [6]: (73.3) %
Papp at 5 h, 0.5 mM [6]: 2.15 ×10⁻⁶ cm/s

CCC(CN1CCN(C)CC1)OC(=O)N(c1cccc(Br)c1)c1nc(SC)nc2c1cnn2CC(C)c1ccccc1 (stereo not drawn) [proSi278 (C), 1-(4-Methylpiperazin-1-yl)butan-2-yl (3-bromophenyl)(6-(methylthio)-1-(2-phenylpropyl)-1H-pyrazolo[3,4-d]pyrimidin-4-yl)carbamate]
half-life at 500 μM [7, 10]: > 48 h
half-life at 500 μM [7, 11]: > 48 h
Stability Human Plasma t1/2 ([8]; 37° C.): 11.31 h
half-life at 100 μM [8, 13]: 11.3 h
solubility at 24 h [4]: 3.02 µM (≈ 1.97 µg/mL)
solubility thermodynamic at 24 h [4]: 1.96 µg/mL (≈ 3 µM)
PAMPA BBB (MR %) [9]: (91.4) %
Papp at 5 h, 0.5 mM [9]: 0.93 ×10⁻⁶ cm/s
PAMPA GI (MR %) [6]: (88.1) %
Papp at 5 h, 0.5 mM [6]: 1.45 ×10⁻⁶ cm/s
